From ChEMBL document CHEMBL1147043, “Comparative metabolism of radiolabeled muraglitazar in animals and humans by quantitative and qualitative metabolite profiling” (Drug Metab Dispos, 2007)

Assays:
[1] = Biodistribution in orally dosed human feces assessed as 8,12-dihydroxy muraglitazar level by LC/MS analysis; assay type: ADME, organism-based; settings: in vivo, po
[2] = tested on: Hepatocyte; assay: Metabolic stability in Sprague-Dawley rat hepatocytes assessed as O-demethyl muraglitazar level by LC/MS analysis relative to control; assay type: ADME, cell-based
[3] = tested on: Plasma; assay: Biodistribution in orally dosed Sprague-Dawley rat plasma assessed as 12-dihydroxy muraglitazar level after 12 hrs by LC/MS analysis; assay type: ADME, organism-based; settings: in vivo, po
[4] = tested on: Plasma; assay: Biodistribution in orally dosed human plasma assessed as O-Dealkyl muraglitazar level after 4 hrs by LC/MS analysis; assay type: ADME, organism-based; settings: in vivo, po
[5] = tested on: Plasma; assay: Biodistribution in orally dosed Beagle dog plasma assessed as muraglitazar glucuronide level after 1 hr by LC/MS analysis; assay type: ADME, organism-based, Canis lupus familiaris; settings: in vivo, po
[6] = tested on: Hepatocyte; assay: Metabolic stability in human hepatocytes assessed as O-Dealkyl muraglitazar level by LC/MS analysis relative to control; assay type: ADME, cell-based
[7] = tested on: Rattus norvegicus; assay: Biodistribution in orally dosed Sprague-Dawley rat feces assessed as 8-hydroxy-O-demethyl muraglitazar level by LC/MS analysis; assay type: ADME, organism-based; settings: in vivo, po
[8] = tested on: Rattus norvegicus; assay: Biodistribution in orally dosed Sprague-Dawley rat urine assessed as muraglitazar 12-carboxylic acid level by LC/MS analysis; assay type: ADME, organism-based; settings: in vivo, po
[9] = Biodistribution in orally dosed human feces assessed as imide derivative of muraglitazar level by LC/MS analysis; assay type: ADME, organism-based; settings: in vivo, po
[10] = tested on: Rattus norvegicus; assay: Cmax in Sprague-Dawley rat at 10 mg/kg, po after 24 hrs; assay type: ADME, organism-based; set-up: dose 10 mg/kg, route oral; settings: in vivo
[11] = tested on: Hepatocyte; assay: Metabolic stability in Sprague-Dawley rat hepatocytes assessed as 12-hydroxy-O-demethyl muraglitazar level by LC/MS analysis relative to control; assay type: ADME, cell-based
[12] = Biodistribution in orally dosed cynomolgus monkey urine assessed as muraglitazar 12-carboxylic acid level by LC/MS analysis; assay type: ADME, organism-based, Macaca fascicularis; settings: in vivo, po
[13] = Metabolic stability in cynomolgus monkey hepatocytes assessed as 8-hydroxy muraglitazar level by LC/MS analysis relative to control; assay type: ADME, cell-based, Macaca fascicularis, Hepatocyte
[14] = Metabolic stability in CD1 mouse hepatocytes assessed as hydroxyl muraglitazar glucuronide level by LC/MS analysis relative to control; assay type: ADME, cell-based, Hepatocyte
[15] = Biodistribution in orally dosed Beagle dog feces assessed as O-dealkyl muraglitazar level by LC/MS analysis; assay type: ADME, organism-based, Canis lupus familiaris; settings: in vivo, po
[16] = Drug concentration in bile duct-cannulated Sprague-Dawley rat bile at 10 mg/kg, po after 24 hrs; assay type: ADME, organism-based; set-up: dose 10 mg/kg, route oral; settings: in vivo
[17] = Drug concentration in cynomolgus monkey urine at 1.9 mg/kg, po after 12 hrs; assay type: ADME, organism-based, Macaca fascicularis; set-up: dose 1.9 mg/kg, route oral; settings: read-out: Drug uptake
[18] = tested on: Plasma; assay: Biodistribution in orally dosed cynomolgus monkey plasma assessed as […] muraglitazar level after 4 hrs by LC/MS analysis; assay type: ADME, organism-based, Macaca fascicularis; settings: in vivo, po
[19] = Metabolic stability in CD1 mouse hepatocytes assessed as 9-hydroxy muraglitazar level by LC/MS analysis relative to control; assay type: ADME, cell-based, Hepatocyte
[20] = Metabolic stability in CD1 mouse hepatocytes assessed as O-demethyl muraglitazar glucuronide level by LC/MS analysis relative to control; assay type: ADME, cell-based, Hepatocyte
[21] = Drug concentration in Beagle dog feces assessed as recovery of radioactive dose at 1.9 mg/kg, po after 168 hrs; assay type: ADME, organism-based, Canis lupus familiaris; set-up: dose 1.9 mg/kg, route oral; settings: in vivo
[22] = tested on: Hepatocyte; assay: Metabolic stability in Sprague-Dawley rat hepatocytes assessed as muraglitazar 12-carboxylic acid level by LC/MS analysis relative to control; assay type: ADME, cell-based
[23] = Biodistribution in orally dosed cynomolgus monkey feces assessed as 8,12-dihydroxy muraglitazar level by LC/MS analysis; assay type: ADME, organism-based, Macaca fascicularis; settings: in vivo, po
[24] = Biodistribution in orally dosed Beagle dog urine assessed as O-dealkyl-O-demethyl muraglitazar level by LC/MS analysis; assay type: ADME, organism-based, Canis lupus familiaris; settings: in vivo, po
[25] = Metabolic stability in cynomolgus monkey hepatocytes assessed as O-demethyl muraglitazar glucuronide level by LC/MS analysis relative to control; assay type: ADME, cell-based, Macaca fascicularis, Hepatocyte
[26] = tested on: Hepatocyte; assay: Metabolic stability in Sprague-Dawley rat hepatocytes assessed as di-oxygenated muraglitazar level by LC/MS analysis relative to control; assay type: ADME, cell-based
[27] = tested on: Plasma; assay: Biodistribution in orally dosed cynomolgus monkey plasma assessed as O-demethyl muraglitazar glucuronide level after 1 hr by LC/MS analysis; assay type: ADME, organism-based, Macaca fascicularis; settings: in vivo, po
[28] = Metabolic stability in CD1 mouse hepatocytes assessed as 12,17-dihydroxy muraglitazar level by LC/MS analysis relative to control; assay type: ADME, cell-based, Hepatocyte
[29] = Biodistribution in orally dosed human urine assessed as 12-hydroxy muraglitazar level by LC/MS analysis; assay type: ADME, organism-based; settings: in vivo, po
[30] = tested on: Plasma; assay: Biodistribution in orally dosed cynomolgus monkey plasma assessed as muraglitazar 12-carboxylic acid level after 12 hrs by LC/MS analysis; assay type: ADME, organism-based, Macaca fascicularis; settings: in vivo, po
[31] = tested on: Plasma; assay: Biodistribution in orally dosed cynomolgus monkey plasma assessed as […] muraglitazar level after 12 hrs by LC/MS analysis; assay type: ADME, organism-based, Macaca fascicularis; settings: in vivo, po
[32] = Biodistribution in orally dosed human feces assessed as 12,17-dihydroxy muraglitazar level by LC/MS analysis; assay type: ADME, organism-based; settings: in vivo, po
[33] = Metabolic stability in CD1 mouse hepatocytes assessed as radioactivity recovaries at 25.6 ug/mL after 4 hrs; assay type: ADME, cell-based, Hepatocyte
[34] = tested on: Plasma; assay: Biodistribution in orally dosed Beagle dog plasma assessed as O-demethyl muraglitazar level after 1 hr by LC/MS analysis; assay type: ADME, organism-based, Canis lupus familiaris; settings: in vivo, po
[35] = tested on: Hepatocyte; assay: Metabolic stability in human hepatocytes assessed as 9-hydroxy muraglitazar level by LC/MS analysis relative to control; assay type: ADME, cell-based
[36] = tested on: Hepatocyte; assay: Metabolic stability in human hepatocytes assessed as 12,17-dihydroxy muraglitazar level by LC/MS analysis relative to control; assay type: ADME, cell-based
[37] = Metabolic stability in CD1 mouse hepatocytes assessed as 8,12-dihydroxy muraglitazar level by LC/MS analysis relative to control; assay type: ADME, cell-based, Hepatocyte
[38] = Drug concentration in bile duct-cannulated Sprague-Dawley rat bile assessed as recovery of radioactive dose at 11 mg/kg, po after 24 hrs; assay type: ADME, organism-based; set-up: dose 11 mg/kg, route oral; settings: in vivo
[39] = tested on: Hepatocyte; assay: Metabolic stability in human hepatocytes assessed as muraglitazar 12-carboxylic acid level by LC/MS analysis relative to control; assay type: ADME, cell-based
[40] = tested on: Rattus norvegicus; assay: Biodistribution in orally dosed Sprague-Dawley rat urine assessed as 9-hydroxy muraglitazar level by LC/MS analysis; assay type: ADME, organism-based; settings: in vivo, po
[41] = tested on: Plasma; assay: Biodistribution in orally dosed cynomolgus monkey plasma assessed as 17-dihydroxy muraglitazar level after 1 hr by LC/MS analysis; assay type: ADME, organism-based, Macaca fascicularis; settings: in vivo, po
[42] = tested on: Homo sapiens; assay: Cmax in human at 10 mg, po after 72 hrs; assay type: ADME, organism-based; set-up: dose 10 mg, route oral; settings: in vivo
[43] = tested on: Hepatocyte; assay: Metabolic stability in Sprague-Dawley rat hepatocytes assessed as muraglitazar glucuronide level by LC/MS analysis relative to control; assay type: ADME, cell-based
[44] = Tmax in Beagle dog at 2 mg/kg, po after 4 hrs; assay type: ADME, organism-based, Canis lupus familiaris; set-up: dose 2 mg/kg, route oral; settings: in vivo
[45] = tested on: Hepatocyte; assay: Metabolic stability in human hepatocytes assessed as muraglitazar glucuronide level by LC/MS analysis relative to control; assay type: ADME, cell-based
[46] = tested on: Plasma; assay: Biodistribution in orally dosed cynomolgus monkey plasma assessed as 17-dihydroxy muraglitazar level after 12 hrs by LC/MS analysis; assay type: ADME, organism-based, Macaca fascicularis; settings: in vivo, po
[47] = Biodistribution in orally dosed human feces assessed as muraglitazar glucuronide level by LC/MS analysis; assay type: ADME, organism-based; settings: in vivo, po
[48] = tested on: Hepatocyte; assay: Metabolic stability in human hepatocytes assessed as 17-hydroxy muraglitazar level by LC/MS analysis relative to control; assay type: ADME, cell-based
[49] = Drug concentration in bile duct-cannulated CD1 mouse bile assessed as recovery of radioactive dose at 1 mg/kg, po after 24 hrs; assay type: ADME, organism-based; set-up: dose 1 mg/kg, route oral; settings: in vivo
[50] = tested on: Plasma; assay: Biodistribution in orally dosed Sprague-Dawley rat plasma assessed as 17-hydroxy-O-demethyl muraglitazar level after 12 hrs by LC/MS analysis; assay type: ADME, organism-based; settings: in vivo, po
[51] = Biodistribution in orally dosed cynomolgus monkey feces assessed as 17-hydroxy muraglitazar level by LC/MS analysis; assay type: ADME, organism-based, Macaca fascicularis; settings: in vivo, po
[52] = tested on: Plasma; assay: Biodistribution in orally dosed cynomolgus monkey plasma assessed as 12,17-dihydroxy muraglitazar level after 4 hrs by LC/MS analysis; assay type: ADME, organism-based, Macaca fascicularis; settings: in vivo, po

With `COc1ccc(OC(=O)N(CC(=O)O)Cc2ccc(OCCc3nc(-c4ccccc4)oc3C)cc2)cc1` [MURAGLITAZAR] the Drug uptake [1] was 2.83%, the Drug uptake [2] was 2.2% and the Drug uptake [3] was 0.2%. The Drug uptake [4] was less than 0.05%, the Drug uptake [5] was less than 0.05% and the Drug uptake [6] was 5.7%. It also gave a Drug uptake [7] of 9.65%, a Drug uptake [8] of less than 0.01% and a Drug uptake [9] of 2.46%. It also gave a Cmax [10] of 13.5 ugequiv/ml, a Drug uptake [11] of less than 0.2% and a Drug uptake [12] of 0.04%. It also gave a Drug uptake [13] of less than 0.2%, a Drug uptake [14] of 2.7% and a Drug uptake [15] of 0.89%. It also gave a Drug uptake [16] of 0.289 mgequiv/ml, a dose excreted at 12 h [17] of 1.7% and a Drug uptake [18] of 1.3%. It also gave a Drug uptake [19] of 1.3%, a Drug uptake [20] of less than 0.2% and a Drug uptake [21] of 89%. The Drug uptake [22] was less than 0.2%, the Drug uptake [23] was 2.41% and the Drug uptake [24] was 0.01%. It also gave a Drug uptake [25] of less than 0.2%, a Drug uptake [26] of 7.5% and a Drug uptake [27] of 0.1%. The Drug uptake [28] was 0.8%, the Drug uptake [29] was 0.03% and the Drug uptake [30] was 0.5%. The Drug uptake [31] was 1%, the Drug uptake [32] was 0.56% and the Stability [33] was 95.6%. It also gave a Drug uptake [34] of 1%, a Drug uptake [35] of 0.5% and a Drug uptake [36] of 0.2%. For the same molecule, the Drug uptake [37] was 0.3%, the Drug uptake [38] was 65.1% and the Drug uptake [39] was 0.9%. For the same molecule, the Drug uptake [40] was less than 0.01%, the Drug uptake [41] was 8% and the Cmax [42] was 1.4 ugequiv/ml. For the same molecule, the Drug uptake [43] was 0.5%, the Tmax [44] was 1 h and the Drug uptake [45] was 1.1%. The Drug uptake [46] was 21.4%, the Drug uptake [47] was 0.06% and the Drug uptake [48] was 4.4%. It also gave a Drug uptake [49] of 75%, a Drug uptake [50] of less than 0.05% and a Drug uptake [51] of 25.73%. The Drug uptake [52] was 1.5%.
